Assay results from ChEMBL document CHEMBL3638861, “Phenyl-substituted 2-imino-3-methyl pyrrolo pyrimidinone compounds as BACE-1 inhibitors, compositions, and their use” (2013).
pIC50, pKi: −log10 of the molar value.

Target: Beta-secretase 1 (Homo sapiens, UniProt P56817)
Experiment: Time-Resolved FRET Assay: A homogeneous time-resolved FRET assay was used to determine IC50 values for inhibitors of the soluble human BACE1 catalytic domain. The assay monitored the increase of 620nm fluorescence that resulted from BACE1 cleavage of an APPswedish APPswe mutant peptide FRET substrate (QSY7-EISEVNLDAEFC-Europium-amide).

Sequence of Beta-secretase 1 (P56817 whole entry, the tested form may be a part): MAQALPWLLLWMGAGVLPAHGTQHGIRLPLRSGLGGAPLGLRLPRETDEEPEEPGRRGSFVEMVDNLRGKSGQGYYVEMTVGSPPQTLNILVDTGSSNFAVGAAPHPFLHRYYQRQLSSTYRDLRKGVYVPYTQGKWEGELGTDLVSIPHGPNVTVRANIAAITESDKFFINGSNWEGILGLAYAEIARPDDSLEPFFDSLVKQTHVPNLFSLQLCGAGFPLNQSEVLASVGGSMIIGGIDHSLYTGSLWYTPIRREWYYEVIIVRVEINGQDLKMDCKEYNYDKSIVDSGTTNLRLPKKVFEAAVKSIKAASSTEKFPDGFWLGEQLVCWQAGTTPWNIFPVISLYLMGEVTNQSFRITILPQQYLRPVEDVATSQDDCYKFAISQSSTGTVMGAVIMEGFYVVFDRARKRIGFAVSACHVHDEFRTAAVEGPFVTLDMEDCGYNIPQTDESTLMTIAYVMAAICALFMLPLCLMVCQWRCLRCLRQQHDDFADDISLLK

pIC50: 7.38
pKi: 8.05
Compound: COc1nc(N2C[C@H]3C(=O)N(C)C(=N)N[C@@]3(c3cc(F)ccc3Cl)C2)nc(C)c1F
